# What was measured:
# [1] = system: A549 (non-small cell lung); assay: antiproliferative assay (NCI protocol), A549; format: cell-based, human; settings: antiproliferative activity
# Experimental: (§1) The antiproliferative assays were conducted following the protocol of the US National Cancer Institute (NCI), with minor modifications.
# (§2) The coumarin-benzoxazole hybrids were also tested as antiproliferative agents against a panel of six human solid tumour cell lines (Table 2): A549 (non-small cell lung), HBL-100 (breast), HeLa (cervix), SW1573 (non-small cell lung) as examples of drug-sensitive lines, and T-47D (breast) and WiDr (colon) as multidrug-resistant lines. A non-tumour cell line (BJ-hTert, human fibroblasts) was also used for analysing the selectivity. Chemotherapeutic agents 5-fluorouracyl (5-FU) and cisplatin (CDDP) were included in the study as drug references.
# [2] = system: SW1573 (non-small cell lung); assay: antiproliferative assay (NCI protocol), SW1573; format: cell-based, human; settings: antiproliferative activity
# Experimental: as §1, §2
# WiDr (colon) = assay: antiproliferative assay (NCI protocol), WiDr; format: cell-based, human; settings: antiproliferative activity, multidrug-resistant line
# Experimental: as §1, §2
# [3] = system: BJ-hTert, human fibroblasts; assay: antiproliferative assay (NCI protocol), non-tumour BJ-hTert; format: cell-based; settings: for GI50: non-tumour cell line, human fibroblasts; for activity against the non-tumour cell line (in words): BJ-hTert
# Experimental: as §1, §2
# T-47D (breast) = assay: antiproliferative assay (NCI protocol), T-47D; format: cell-based, human; settings: antiproliferative activity, multidrug-resistant line
# Experimental: as §1, §2
# HBL-100 (breast) = assay: antiproliferative assay (NCI protocol), HBL-100; format: cell-based, human; settings: antiproliferative activity
# Experimental: as §1, §2
# HeLa (cervix) = assay: antiproliferative assay (NCI protocol), HeLa; format: cell-based, human; settings: antiproliferative activity
# Experimental: as §1, §2
# human CA I = human CA I (Homo sapiens, UniProt P00915); assay: stopped-flow CO2 hydrase assay, CA I
# Chain of human CA I (P00915 whole entry): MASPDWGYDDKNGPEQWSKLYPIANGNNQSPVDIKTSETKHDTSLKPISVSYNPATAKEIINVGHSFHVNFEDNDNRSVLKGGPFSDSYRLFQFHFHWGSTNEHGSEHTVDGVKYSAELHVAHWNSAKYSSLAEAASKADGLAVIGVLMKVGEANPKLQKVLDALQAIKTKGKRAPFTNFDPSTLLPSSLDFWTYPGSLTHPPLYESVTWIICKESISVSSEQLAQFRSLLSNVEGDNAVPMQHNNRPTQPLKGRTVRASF
# Excerpt: (§3) A stopped-flow CO2 hydrase assay has been employed as reported earlier[10–12].
# human CA IX = human CA IX (Homo sapiens, UniProt Q16790); assay: stopped-flow CO2 hydrase assay, CA IX; settings: for Selectivity ratio I/IX: ratio of Ki CA I / CA IX; for Selectivity ratio II/IX: ratio of Ki CA II / CA IX
# Excerpt: as §3
# human CA IV = human CA IV (Homo sapiens, UniProt P22748); assay: stopped-flow CO2 hydrase assay, CA IV
# Chain of human CA IV (P22748 19-312): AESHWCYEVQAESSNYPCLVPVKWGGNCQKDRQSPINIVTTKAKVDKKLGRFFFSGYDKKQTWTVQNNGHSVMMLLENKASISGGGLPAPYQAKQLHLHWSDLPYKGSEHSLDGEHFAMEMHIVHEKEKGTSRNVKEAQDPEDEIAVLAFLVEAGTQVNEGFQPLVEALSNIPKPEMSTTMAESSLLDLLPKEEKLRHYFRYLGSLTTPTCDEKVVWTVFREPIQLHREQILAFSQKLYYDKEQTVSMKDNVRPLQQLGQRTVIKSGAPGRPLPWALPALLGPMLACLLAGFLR
# Excerpt: as §3
# human CA II = human CA II (Homo sapiens, UniProt P00918); assay: stopped-flow CO2 hydrase assay, CA II
# Excerpt: as §3
# human CA VII = human CA VII (Homo sapiens, UniProt P43166); assay: stopped-flow CO2 hydrase assay, CA VII
# Chain of human CA VII (P43166 whole entry): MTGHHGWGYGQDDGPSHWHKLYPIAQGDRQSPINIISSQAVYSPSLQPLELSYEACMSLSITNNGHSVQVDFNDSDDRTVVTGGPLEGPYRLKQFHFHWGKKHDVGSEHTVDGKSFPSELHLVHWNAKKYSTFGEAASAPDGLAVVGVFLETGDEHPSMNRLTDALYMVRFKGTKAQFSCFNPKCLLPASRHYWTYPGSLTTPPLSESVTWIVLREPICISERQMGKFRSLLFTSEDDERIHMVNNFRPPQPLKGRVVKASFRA
# Excerpt: as §3
# human CA XII = human CA XII (Homo sapiens, UniProt O43570); assay: stopped-flow CO2 hydrase assay, CA XII; settings: for Selectivity ratio I/XII: ratio of Ki CA I / CA XII; for Selectivity ratio II/XII: ratio of Ki CA II / CA XII
# Chain of human CA XII (O43570 25-354): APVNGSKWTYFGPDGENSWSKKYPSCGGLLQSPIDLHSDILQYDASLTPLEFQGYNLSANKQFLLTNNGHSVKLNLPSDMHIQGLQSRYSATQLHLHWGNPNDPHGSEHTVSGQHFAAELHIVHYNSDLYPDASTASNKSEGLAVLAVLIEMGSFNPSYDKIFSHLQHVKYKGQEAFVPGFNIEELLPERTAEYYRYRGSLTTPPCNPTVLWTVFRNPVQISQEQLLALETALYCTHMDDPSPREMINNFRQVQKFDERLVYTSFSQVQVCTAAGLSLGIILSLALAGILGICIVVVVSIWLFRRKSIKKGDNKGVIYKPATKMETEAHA
# Excerpt: as §3
# [4] = system: panel of six human solid tumour cell lines; assay: antiproliferative assay, whole panel of tumour cell lines; format: cell-based
# Experimental: as §1, §2
SMILES,"GI50 ([1]; Homo sapiens, A549) [µM]","GI50 ([2]; Homo sapiens, SW1573) [µM]","GI50 (WiDr (colon); Homo sapiens, WiDr) [µM]",GI50 ([3]; Fibroblast) [µM],"GI50 (T-47D (breast); Homo sapiens, T47D) [µM]","GI50 (HBL-100 (breast); Homo sapiens, HBL-100) [µM]","GI50 (HeLa (cervix); Homo sapiens, HeLa) [µM]",Ki (human CA I) [µM],Ki (human CA IX) [µM],Selectivity ratio I/IX (human CA IX),Selectivity ratio II/IX (human CA IX),Ki (human CA IV) [µM],activity against the non-tumour cell line (in words) [3],Ki (human CA II) [µM],Ki (human CA VII) [µM],Ki (human CA XII) [µM],Selectivity ratio I/XII (human CA XII),Selectivity ratio II/XII (human CA XII),further results
"O=c1[nH]cc(F)c(=O)[nH]1 [5-Fluorouracil, reference compound]",2.2 ± 0.3,3.3 ± 1.2,49 ± 7,5.5 ± 0.5,43 ± 16,4.4 ± 0.7,16 ± 5,,,,,,,,,,,,
"[NH2][Pt]([NH2])([Cl])[Cl] [CDDP, cisplatin, reference compound]",,,,,,,,,,,,,,,,,,,GI50 [1]: 4.9 ± 0.2 µM; GI50 [2]: 2.7 ± 0.4 µM; GI50 (WiDr (colon)): 26 ± 4 µM; GI50 [3]: 14 ± 2 µM; GI50 (T-47D (breast)): 17 ± 3 µM; GI50 (HBL-100 (breast)): 1.9 ± 0.2 µM; GI50 (HeLa (cervix)): 1.8 ± 0.5 µM
Cc1cc(=O)oc2cc(OCCCNc3nc4ccccc4o3)ccc12 [Compound 8a],32 ± 1,29 ± 4,37 ± 4,> 50,33 ± 3,41 ± 5,30 ± 2,> 10,0.0742,>134.8,>134.8,0.839,weak activity,> 10,> 10,0.0844,>118.5,>118.5,
Cc1cc(=O)oc2cc(OCCCCCNc3nc4ccccc4o3)ccc12 [Compound 8b],15 ± 6,33 ± 4,33 ± 1,> 100,38 ± 10,49 ± 6,39 ± 1,> 10,0.0707,>141.4,>141.4,0.95,,> 10,> 10,0.0845,>118.3,>118.3,
Cc1cc(=O)oc2cc(OCCCCCCNc3nc4ccccc4o3)ccc12 [Compound 8c],8.3 ± 1.6,> 100,> 100,> 100,> 100,> 100,96 ± 7,> 10,0.0823,>121.5,>121.5,0.984,,> 10,> 10,0.0651,>153.6,>153.6,
Cc1c(C)c2ccc(OCCCCCCNc3nc4ccccc4o3)cc2oc1=O [Compound 8d],15 ± 3,20 ± 3,> 100,> 50,> 100,53 ± 14,29 ± 8,> 10,0.0645,>155.0,>155.0,0.802,weak activity,> 10,> 10,0.0698,>143.3,>143.3,
Cc1c(Cl)c(=O)oc2cc(OCCCCCCNc3nc4ccccc4o3)ccc12 [Compound 8e],2.6 ± 0.5,3.1 ± 0.5,4.2 ± 0.5,> 100,4.3 ± 0.1,5.1 ± 1.4,3.9 ± 0.7,> 10,0.0743,>134.6,>134.6,0.82,,> 10,> 10,0.0757,>132.1,>132.1,"GI50 ([4]; Homo sapiens, range over the tumour cell lines, read-out: GI50 for all cell lines): 2.6 to 5.1 µM; increased activity compared to 5-FU ([4]; multidrug-resistant cell lines): up to 11.7 fold; increased activity compared to CDDP ([4]; multidrug-resistant cell lines): up to 6.2 fold"
Cc1cc(=O)oc2cc(OCCCCCNc3nc4cc(Br)ccc4o3)ccc12 [Compound 8h],6.5 ± 3.1,14 ± 1,29 ± 1,> 100,32 ± 7,23 ± 5,16 ± 1,> 10,0.757,>13.2,>13.2,0.792,,> 10,> 10,0.0807,>123.9,>123.9,decreased activity against CA IX compared to non-substituted counterpart 8b (human CA IX; versus 8b): 11 fold
Cc1cc(=O)oc2cc(OCCCCCNc3nc4cc(-c5ccccc5)ccc4o3)ccc12 [Compound 8i],41 ± 20,60 ± 4,78 ± 38,25 ± 6,> 100,30 ± 9,28 ± 13,> 10,0.0332,>301.2,>301.2,6.27,moderate antiproliferative agent,> 10,> 10,0.0571,>175.1,>175.1,
Cc1cc(=O)oc2cc(OCCCCCNc3nc4cc(S(N)(=O)=O)ccc4o3)ccc12 [Compound 8j],13 ± 3,29 ± 8,29 ± 9,> 100,34 ± 8,27 ± 8,21 ± 7,0.806,0.0907,8.9,5.7,3.47,,0.516,0.381,0.0506,15.9,10.2,

# From paper PMC8667885, “2-Aminobenzoxazole-appended coumarins as potent and selective inhibitors of tumour-associated carbonic anhydrases” (Journal of Enzyme Inhibition and Medicinal Chemistry, 2021)
